Test results reported in patent publication US6362328B1, “Assays and probes with enzyme labels” (London Biotechnology Limited, priority 1996, dated 2002).

Tests used:
nuclease P1 [1] = biological target: T1, nuclease P1 (Penicillium citrinum, UniProt P24289); details: phosphate 0 to 10 mM; nuclease P1 at pH 6.5, alkaline phosphatase at pH 8.9; FIG. 2
T1 sequence (P24289 1-270): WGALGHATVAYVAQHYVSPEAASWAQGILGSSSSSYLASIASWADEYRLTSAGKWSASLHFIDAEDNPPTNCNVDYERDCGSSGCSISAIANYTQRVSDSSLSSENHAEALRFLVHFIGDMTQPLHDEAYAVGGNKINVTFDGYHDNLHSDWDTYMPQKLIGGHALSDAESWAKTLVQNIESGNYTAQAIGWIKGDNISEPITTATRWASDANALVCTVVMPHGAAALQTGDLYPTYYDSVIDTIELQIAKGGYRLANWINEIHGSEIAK
Description: A solution of nuclease P1 standardized according to Example 1 was serially diluted in 50 mM citrate buffer adjusted to pH 6.5 with NaOH. The assay mixture contained 20 μM 3′FADP, 0.1 mM 4-aminoantipyrine, 2 mM DHSA, 1 μg horseradish peroxidase, 0.1 M glucose and 0.1 μM apoglucose oxidase in a total volume of 0.1 ml. The change in absorbance was monitored at 520 nm in a Dynatech MR7000 plate reader fitted with a thermostatically controlled plate holder set to 25° C.

[2] = tested on: endogenous "FADPase" in the apoglucose oxidase; assay: Effect of p-nitrophenyl phosphate on background color generation in the absence of nuclease P1; format: biochemical; details: p-nitrophenyl phosphate at concentrations up to approximately 5 mM; no nuclease P1; FIG. 3
Description: (§1) The effect of the added p-nitrophenyl phosphate on the background color generation in the absence of nuclease P1 was also noted. This background is due to endogenous “FADPase” in the apoglucose oxidase used in the assay. At concentrations up to approximately 5 mM, added p-nitrophenyl phosphate has no effect on nuclease P1, but reduces the background signal by 80-100% (FIG. 3).

nuclease P1 [3] = biological target: T1, nuclease P1; assay: Effect of p-nitrophenyl phosphate on the activity of nuclease P1; format: biochemical; set-up: purchased Sigma Chemical Company; details: p-nitrophenyl phosphate at concentrations up to approximately 5 mM; FIG. 3
Description: as §1

[4] = Standardization of nuclease P1 (coupled NADH assay, absorbance at 340 nm); format: biochemical; details: 22.7 μM solution (1 mg in 1 ml water); 50 mM HEPES pH 7.2; molar extinction coefficient of 6220 for NADH assumed
Description: Nuclease P1 (1 mg; obtained from Sigma Chemical Company, batch no: 107F0799) was dissolved in 1 ml of water to give a concentration of 22.7 μM and stored at 4° C. The activity of this solution was assayed in the following mixture: 0.16 mM NADH, 1 mM ATP, 1 mM PEP, 1 mM MgSO4, 20 mM KCl, 0.5 mM adenosine 3′,5′-bisphosphate, 1 U pyruvate kinase, 1 U lactate dehydrogenase and 1 U myokinase in 50 mM HEPES buffer, pH 7.2, in a total volume of 1 ml.

phosphate
effect of phosphate on enzyme activity (nuclease P1 [1]): less of an effect on nuclease P1 than on alkaline phosphatase

O=[N+]([O-])c1ccc(OP(=O)(O)O)cc1 [p-nitrophenyl phosphate]
reduction of background signal [2]: 80-100%
effect on nuclease P1 activity (nuclease P1 [3]): no effect

B1: Nuclease P1: enzyme obtained from Sigma Chemical Company, used as enzyme label (protein, UniProt P24289 1-270, looked up)
Nuclease P1: WGALGHATVAYVAQHYVSPEAASWAQGILGSSSSSYLASIASWADEYRLTSAGKWSASLHFIDAEDNPPTNCNVDYERDCGSSGCSISAIANYTQRVSDSSLSSENHAEALRFLVHFIGDMTQPLHDEAYAVGGNKINVTFDGYHDNLHSDWDTYMPQKLIGGHALSDAESWAKTLVQNIESGNYTAQAIGWIKGDNISEPITTATRWASDANALVCTVVMPHGAAALQTGDLYPTYYDSVIDTIELQIAKGGYRLANWINEIHGSEIAK
activity of nuclease P1 solution [4]: 320 U/ml
